In publication PMC7039992, “The structural basis of fungal glucuronoyl esterase activity on natural substrates” (Nature Communications, 2020):
Values joined by “and” are separate entries in the source; they are usually repeats but may differ in a detail not shown here. Identical values can stand only once.

Legend:
[1] = target: T1, ΔWT CuGE (truncated, catalytic domain only) (Cerrena unicolor, UniProt A0A0A7EQR3); experiment: Microscale thermophoresis (MST, LabelFree) binding of soluble ligands to ΔWT; conditions: for Fnorm Average: MST
T1 construct: truncated CuGE (residues G79-T458) corresponding to the catalytic domain only; His6 (C); TEV protease cleavage site (C); made in house; host or cells: Pichia pastoris X-33
Procedure: (§1) Binding affinities for the soluble ligands U^m4XX^-OH (O-UXXR, MEGAZYMES), MeGlcA (4-O-methyl-D-glucuronic acid, MM46686, Carbosynth, Crompton UK), and MeMeGlcA (4-O-methyl-D-glucopyranosyluronate, purchased from Institute of Chemistry, Slovak Academy of Sciences, Bratislava, Slovakia) were measured by MST. The protein stocks, dΔS207A and ΔWT, were adjusted to 200 nM with 100 mM sodium acetate buffer pH 5 supplemented with 0.1% Pluronic F-127. Ligand stocks (100 mM U^m4XX^-OH, 43 mM MeGlcA and 250 mM MeMeGlcA) were prepared in 100 mM sodium acetate buffer pH 5, and for each ligand a series of 16 1:1 dilutions was prepared using the same buffer. For the measurement, each ligand dilution was mixed with one volume of protein, which led to a final protein concentration of 100 nM and final ligand concentrations in the mM to nM range. After 10 min incubation followed by centrifugation at 10,000 × g for 10 min, the samples were loaded into Monolith NT.LabelFree zero-background capillaries (NanoTemper Technologies). The MST experiment was performed with a Monolith NT.LabelFree instrument (NanoTemper Technologies) at 25 °C using 30% LED power and medium MST power. […] Final ligand concentration ranges used in the analysis of the MST signal were: U^m4XX^-OH 25 mM to 1.53 μM, MeGlcA 10.8 mM to 656 nM and MeMeGlcA 15.6 mM to 3.81 μM. For each ligand-binding curve, data from at least three independently pipetted measurements were included in the analysis with the MO. Affinity Analysis software (version 2.3, NanoTemper Technologies) using the signal from an MST-on time of 5 s.

[2] = target: T2, dΔS270A CuGE (inactive truncated deglycosylated variant) (Cerrena unicolor, UniProt A0A0A7EQR3, S286A); experiment: Microscale thermophoresis (MST, LabelFree) binding of soluble ligands to dΔS270A
T2 construct: truncated CuGE (residues G79-T458) corresponding to the catalytic domain only; His6 (C); TEV protease cleavage site (C); made in house; host or cells: Pichia pastoris X-33
Procedure: as §1

[3] = test system: CuGE catalytic domain crystals; experiment: Crystal soaking with ligands; assay type: binding, Cerrena unicolor; conditions: concentrations up to 0.5 M
Procedure: The deglycosylated CuGE variants dWT and dΔS207A were both screened for crystallization. However, all crystals obtained contain the catalytic domain only, as crystals formed in experiments with the full-length enzyme (dWT) turned out to be a proteolytic fragment lacking the CBM1 and linker region (Δ*dWT). […] Crystallization and ligand soak conditions are summarized in Supplementary Table 1. The vast majority of crystals formed at 4 °C and with high molecular weight polymers (SOKALAN CP7, PEG 10,000 or PEG 8000) as precipitants. Crystals were cryoprotected by brief soaks in either reservoir or ligand stock solutions supplemented with 26% glycerol and flash-frozen in liquid nitrogen. […] A refinement protocol using the maximum-likelihood target, real-space refinement, refinement of coordinates, individual isotropic temperature factors and translation-liberation-screw (TLS) refinement using TLS groups determined by the PHENIX software was applied. […]

[4] = Stability measurements: apparent thermal unfolding temperature (Ti) from intrinsic fluorescence, Tycho NT.6; assay type: physicochemical, Cerrena unicolor; conditions: 20 mM sodium acetate buffer pH 5
Procedure: In order to evaluate the stability of the different CuGE variants apparent unfolding temperatures (Ti) were monitored based on changes in intrinsic fluorescence using a Tycho NT.6 instrument (NanoTemper Technologies). The measurements were made in 20 mM sodium acetate buffer pH 5, protein concentrations in the range 0.07–0.3 mg mL^−1.

Question: Which results are given for `CO[C@H]1[C@H](O)[C@@H](O)[C@@H](O[C@H]2[C@H](O[C@@H]3CO[C@@H](O[C@H](CO)[C@H](O)[C@@H](O)CO)[C@H](O)[C@H]3O)OC[C@@H](O)[C@@H]2O)O[C@@H]1C(=O)O` [U^m4XX^-OH, aldotetrauronic acid]?
Answer: Kd [1]: 5 mM; Fnorm Average ([1]; ligand Conc 1.52588e-6 M): 893.29; Fnorm Average ([1]; ligand Conc 3.05176e-6 M): 893.55; Fnorm Average ([1]; ligand Conc 6.10352e-6 M): 893.63; Fnorm Average ([1]; ligand Conc 1.2207e-5 M): 892.18; Fnorm Average ([1]; ligand Conc 2.44141e-5 M): 892.73; Fnorm Average ([1]; ligand Conc 4.88281e-5 M): 894.37; Fnorm Average ([1]; ligand Conc 9.76563e-5 M): 893.73; Fnorm Average ([1]; ligand Conc 0.000195313 M): 893.94; Fnorm Average ([1]; ligand Conc 0.000390625 M): 894.62; Fnorm Average ([1]; ligand Conc 0.00078125 M): 893.24; Fnorm Average ([1]; ligand Conc 0.0015625 M): 896.88; Fnorm Average ([1]; ligand Conc 0.003125 M): 900.40; Fnorm Average ([1]; ligand Conc 0.00625 M): 905.36; Fnorm Average ([1]; ligand Conc 0.0125 M): 907.85; Fnorm Average ([1]; ligand Conc 0.025 M): 907.66; Fnorm Average ([2]; MST, ligand Conc 1.52588e-6 M): 893.61; Fnorm Average ([2]; MST, ligand Conc 3.05176e-6 M): 893.69; Fnorm Average ([2]; MST, ligand Conc 6.10352e-6 M): 893.20; Fnorm Average ([2]; MST, ligand Conc 1.2207e-5 M): 894.05; Fnorm Average ([2]; MST, ligand Conc 2.44141e-5 M): 893.89; Fnorm Average ([2]; MST, ligand Conc 4.88281e-5 M): 895.55; Fnorm Average ([2]; MST, ligand Conc 9.76563e-5 M): 898.89; Fnorm Average ([2]; MST, ligand Conc 0.000195313 M): 901.02; Fnorm Average ([2]; MST, ligand Conc 0.000390625 M): 904.70; Fnorm Average ([2]; MST, ligand Conc 0.00078125 M): 908.26; Fnorm Average ([2]; MST, ligand Conc 0.0015625 M): 908.91; Fnorm Average ([2]; MST, ligand Conc 0.003125 M): 910.47; Fnorm Average ([2]; MST, ligand Conc 0.00625 M): 911.05; Fnorm Average ([2]; MST, ligand Conc 0.0125 M): 912.09; Fnorm Average ([2]; MST, ligand Conc 0.025 M): 909.72

Question: Which results are given for `CO[C@@H]([C@H](O)[C@@H](O)C=O)[C@H](O)C(=O)O` [MeGlcA, 4-O-methyl-D-glucuronic acid]?
Answer: dissociation constant, times higher compared to dΔS270A:U^m4XX^-OH ([2]; MST): ~ 10 times; Fnorm Average ([2]; MST, ligand Conc 6.56128e-7 M): 892.97; Fnorm Average ([2]; MST, ligand Conc 1.31226e-6 M): 893.37; Fnorm Average ([2]; MST, ligand Conc 2.62451e-6 M): 892.22; Fnorm Average ([2]; MST, ligand Conc 5.24902e-6 M): 893.19; Fnorm Average ([2]; MST, ligand Conc 1.0498e-5 M): 892.96; Fnorm Average ([2]; MST, ligand Conc 2.09961e-5 M): 892.61; Fnorm Average ([2]; MST, ligand Conc 4.19922e-5 M): 895.02; Fnorm Average ([2]; MST, ligand Conc 8.39844e-5 M): 893.94; Fnorm Average ([2]; MST, ligand Conc 0.000167969 M): 894.55; Fnorm Average ([2]; MST, ligand Conc 0.000335937 M): 893.65; Fnorm Average ([2]; MST, ligand Conc 0.000671875 M): 895.68; Fnorm Average ([2]; MST, ligand Conc 0.00134375 M): 895.81; Fnorm Average ([2]; MST, ligand Conc 0.0026875 M): 897.59; Fnorm Average ([2]; MST, ligand Conc 0.005375 M): 898.85; Fnorm Average ([2]; MST, ligand Conc 0.01075 M): 901.30

Question: Which Kd [2] does the source give for `COC(=O)[C@H]1OC(O)[C@H](O)[C@@H](O)[C@@H]1OC` (stereo partly drawn) [MeMeGlcA, methyl ester of 4-O-methyl-D-glucuronic acid] here?
Answer: The Kd was > 10 mM.

Question: And the “Fnorm Average” value ([2]; MST, ligand Conc 3.8147e-6 M)?
Answer: Its value is 893.87.

Question: What about the “Fnorm Average” value ([2]; MST, ligand Conc 7.62939e-6 M) of the same molecule?
Answer: Its value is 892.81.

Question: And the “Fnorm Average” value ([2]; MST, ligand Conc 1.52588e-5 M)?
Answer: The value was 893.60.

Question: What about the “Fnorm Average” value ([2]; MST, ligand Conc 3.05176e-5 M) of the same molecule?
Answer: Its value is 893.00.

Question: And the “Fnorm Average” value ([2]; MST, ligand Conc 6.10352e-5 M)?
Answer: The value was 891.24.

Question: What about the “Fnorm Average” value ([2]; MST, ligand Conc 0.00012207 M) of the same molecule?
Answer: The value was 892.80.

Question: And the “Fnorm Average” value ([2]; MST, ligand Conc 0.000244141 M)?
Answer: The value was 892.27.

Question: What about the “Fnorm Average” value ([2]; MST, ligand Conc 0.000488281 M) of the same molecule?
Answer: Its value is 892.23.

Question: What about the “Fnorm Average” value ([2]; MST, ligand Conc 0.000976562 M) of the same molecule?
Answer: The value was 892.05.

Question: And the “Fnorm Average” value ([2]; MST, ligand Conc 0.00195312 M)?
Answer: The value was 893.14.

Question: What about the “Fnorm Average” value ([2]; MST, ligand Conc 0.00390625 M) of the same molecule?
Answer: Its value is 894.69.

Question: And the “Fnorm Average” value ([2]; MST, ligand Conc 0.0078125 M)?
Answer: The value was 894.83.

Question: And the “Fnorm Average” value ([2]; MST, ligand Conc 0.015625 M)?
Answer: The value was 899.63.

Question: What about the “complex formation on crystal soak” value [3] of the same molecule?
Answer: The value was “did not result in a complex”.

B1: dWT: enzymatically deglycosylated full-length WT CuGE (protein)
chain: QASAPQWGQCGGIGWTGPTACPSGWACQQLNAYYSQCLQGAAPAPARTTAAPPPPPATTAAPPPPTTSAPTGSSPVAGACGAIASTVPNYNNAKLPDPFTFANGTALRTKADWSCRRAEISALIQNYEAGTLPPKPPVVTASFSKSGNTGTLAITAGLSNSQTIKFSPTISYPSGTPPANGWPLIIAYEGGSIPIPAGVATLTYSNSDMAQQNSASSRGQGLFYQLYGSTHSASAMTAWVWGVSRIIDALEMTPTAQINTQRIGVTGCSRDGKGALMAGAFEERIALTIPQESGSGGDACWRLSKYEIDNGNQVQDAVEIVGENVWFSTNFNNYVQKLPTVPEDHHLLAAMVAPRAMISFENTDYLWLSPMSSFGCMTAAHTVWQGLGIADSHGFAQVGGHAHCAWPSSLTPQLNAFINRFLLDQSATTNVFTTNNQFGKVQWNAANWITWTTPTLT
modifications: N-glycosylation at N104 trimmed with Endo H; O-glycosylation in the linker region trimmed with alpha-1-2,3,6 mannosidase; left off: c-myc epitope, C-terminal, state not stated | His6, C-terminal, stat
notes: enzymatically deglycosylated full-length WT CuGE
Question: Which “Ti, single measurements” value ([4]; individual replicates) does the source give for B1 here?
Answer: Its value is 75.9 °C and 75.7 °C and 75.8 °C.

Question: What about the “Ti, apparent thermal unfolding temperature (mean)” value ([4]; protein 0.07–0.3 mg mL^−1, intrinsic fluorescence) of the same molecule?
Answer: The value was 75.8 °C.
